Data taken from PMC8152814, “The modulatory role of sulfated and non-sulfated small molecule heparan sulfate-glycomimetics in endothelial dysfunction: absolute structural clarification, molecular docking and simulated dynamics, SAR analyses and ADMET studies” (RSC Medicinal Chemistry, 2021).

Assay: in vitro
Conditions: mouse, microsomes, pH 7.4
Description: MLM assay (controls: diphenhydramine and diazepam). hERG assay (controls: quinidine and dimethylsulfoxide).
Microsomal Metabolic Stability
Pooled liver microsomes (final protein concentration 0.5 mg/mL), 0.1 M phosphate buffer pH
7.4 and test compound (final substrate concentration 3 µM; final DMSO concentration 0.25 %)
are pre-incubated at 37 °C prior to the addition of NADPH (final concentration 1 mM) to initiate
the reaction. The final incubation volume is 50 µL. A minus cofactor control incubation is
included for each compound tested where 0.1 M phosphate buffer pH 7.4 is added instead of
NADPH (minus NADPH). Two control compounds are included with each species. All incubations are performed singularly for each test compound. Each compound is incubated for 0, 5, 15, 30 and 45 min. The control (minus NADPH) is incubated for 45 min. The reactions
are stopped by transferring 20 µL of incubate to 60 µL methanol at the appropriate time points.
The termination plates are centrifuged at 2,500 rpm for 20 min at 4 °C to precipitate the protein.
Following protein precipitation, the sample supernatants are combined in cassettes of up to 4
compounds, internal standard is added and samples analysed using Cyprotex generic
LC-MS/MS conditions. From a plot of ln peak area ratio (compound peak area /internal
standard peak area) against time, the gradient of the line is determined. Subsequently, half-
life and intrinsic clearance are calculated using the equations below:
Elimination rate constant (k) = (- gradient)
Intrinsic clearance (CLint)(µL/min/mg protein) = where V = Incubation volume (µL)/Microsomal protein (mg)
Relevant control compounds are assessed, ensuring intrinsic clearance values fall within the
specified limits (if available).

COC(=O)c1cc(OC[C@@H](COS(=O)(=O)[O-])OS(=O)(=O)[O-])ccc1OCCCCOS(=O)(=O)[O-].[Na+].[Na+].[Na+] [Compound S-10, sodium (S)-3-(3-(methoxycarbonyl)-4-(4-(sulfonatooxy)butoxy)phenoxy)propane-1,2-diyl bis(sulfate)]
half-life at 0.75 h, 3 µM: 69.3 h
